This passage reports Max % inhibition and IC50 results from patent US20230089867A1, “CYCLIC PENTAMER COMPOUNDS AS PROPROTEIN CONVERTASE SUBTILISIN/KEXIN TYPE 9 (PCSK9) INHIBITORS FOR THE TREATMENT OF METABOLIC DISORDER” (Novartis AG, priority 2018, published 2023).

The experiment has as its target human PCSK9 (Homo sapiens, UniProt Q8NBP7). Description: PCSK9 ligand binding TR-FRET assay (interference with binding of human PCSK9 to human LDLR). The following applies: for Max % inhibition: PCSK9 FRET assay, efficacy (Amax), 100% = 1 uM unlabeled human PCSK9, 0% = DMSO; for IC50: TR-FRET, human PCSK9 Alexa Fluor 647 / human LDLR extracellular domain-Europium Kryptate, read-out: PCSK9 FRET Assay IC50. In outline: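 Threefold compound dilutions were pre-incubated 30 min with PCSK9, after which 4 nM Europium Kryptate-tagged human LDLR ectodomain was added for a further 2 h.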

Chain of human PCSK9 (Q8NBP7 153-692): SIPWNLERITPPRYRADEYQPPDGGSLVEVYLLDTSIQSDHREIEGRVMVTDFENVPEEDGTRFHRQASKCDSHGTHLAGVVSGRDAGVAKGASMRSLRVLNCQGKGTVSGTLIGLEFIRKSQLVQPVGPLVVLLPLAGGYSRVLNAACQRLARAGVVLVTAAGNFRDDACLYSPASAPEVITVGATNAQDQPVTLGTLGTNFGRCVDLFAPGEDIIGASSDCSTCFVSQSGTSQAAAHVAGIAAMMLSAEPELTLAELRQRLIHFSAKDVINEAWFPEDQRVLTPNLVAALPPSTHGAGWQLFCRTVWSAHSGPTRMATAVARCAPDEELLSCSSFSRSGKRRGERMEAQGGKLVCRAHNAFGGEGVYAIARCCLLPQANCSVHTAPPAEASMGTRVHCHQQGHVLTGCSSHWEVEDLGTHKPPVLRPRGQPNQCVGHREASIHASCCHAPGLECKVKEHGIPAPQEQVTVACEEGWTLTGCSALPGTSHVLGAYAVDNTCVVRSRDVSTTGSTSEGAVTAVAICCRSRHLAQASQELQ
Chain of human PCSK9 (Q8NBP7 31-152 partner limits assumed): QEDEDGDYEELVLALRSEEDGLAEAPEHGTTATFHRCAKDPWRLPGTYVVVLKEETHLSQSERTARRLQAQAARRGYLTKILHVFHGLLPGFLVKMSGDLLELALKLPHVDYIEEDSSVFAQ

What is called IC50 is the midpoint of a concentration-inhibition curve. Consider `COC[C@@H]1NC(=O)[C@H](CCCN2CCOCC2)N(Cc2ccc(Cl)cc2Oc2ccc(-c3cnc(CN(C)C)n3C)cc2)C(=O)C[C@@H](Cc2ccccc2)C(=O)N(C)[C@@H](C)CNC(=O)C[C@H](Cc2ccc(Cl)cc2)N(C)C1=O` [Compound 158, (2S,5S,8S,13S,16R)-16-benzyl-1-(4-chloro-2-(4-(2-((dimethylamino)methyl)-1-methyl-1H-imidazol-5-yl)phenoxy)benzyl)-8-(4-chlorobenzyl)-5-(methoxymethyl)-7,13,14-trimethyl-2-(3-morpholinopropyl)-1,4,7,11,14-pentaazacyclooctadecane-3,6,10,15,18-pentaone], for which the Max % inhibition is listed as 98.98% and the IC50 came out at 1.4 nM.
In the case of `COC[C@@H]1NC(=O)[C@H](C)N(Cc2ccc(Cl)cc2Oc2ccc(-c3cnc(CN(C)C)n3C)cc2)C(=O)C[C@@H](OC)C(=O)N(C)[C@@H](C)CNC(=O)C[C@H](Cc2ccc(Cl)cc2)N(C)C1=O` [Compound 159, (2S,5S,8S,13S,16R)-1-(4-chloro-2-(4-(2-((dimethylamino)methyl)-1-methyl-1H-imidazol-5-yl)phenoxy)benzyl)-8-(4-chlorobenzyl)-16-methoxy-5-(methoxymethyl)-2,7,13,14-tetramethyl-1,4,7,11,14-pentaazacyclooctadecane-3,6,10,15,18-pentaone], the Max % inhibition was 55.26% and the IC50 amounted to 74 nM.
Regarding `C[C@H]1CNC(=O)C[C@H](Cc2ccc(Cl)cc2)N(C)C(=O)[C@H](CC(=O)N(C)C)NC(=O)[C@H](C)N(Cc2ccc(Cl)cc2Oc2ccc(-c3cnc(CN(C)C)n3C)cc2)C(=O)C[C@@H](Cc2ccccc2)C(=O)N1C` [Compound 160, 2-((2S,5S,8S,13S,16R)-16-benzyl-1-(4-chloro-2-(4-(2-((dimethylamino)methyl)-1-methyl-1H-imidazol-5-yl)phenoxy)benzyl)-8-(4-chlorobenzyl)-2,7,13,14-tetramethyl-3,6,10,15,18-pentaoxo-1,4,7,11,14-pentaazacyclooctadecan-5-yl)-N,N-dimethylacetamide], the Max % inhibition is recorded as 91.45% and the IC50 is 7.6 nM.
As to `COC[C@@H]1NC(=O)[C@H](C)N(Cc2ccc(Cl)cc2Oc2ccc(-c3cnc(CN(C)C)n3C)cc2)C(=O)C[C@@H](C)C(=O)N(C)[C@@H](C)CNC(=O)C[C@H](Cc2ccc(Cl)cc2)N(C)C1=O` [Compound 161, (2S,5S,8S,13S,16R)-1-(4-chloro-2-(4-(2-((dimethylamino)methyl)-1-methyl-1H-imidazol-5-yl)phenoxy)benzyl)-8-(4-chlorobenzyl)-5-(methoxymethyl)-2,7,13,14,16-pentamethyl-1,4,7,11,14-pentaazacyclooctadecane-3,6,10,15,18-pentaone], the Max % inhibition was 92.62% and the IC50 is 14.7 nM.
Taken in the same sequence, the figures for `COC[C@@H]1NC(=O)[C@H](C)N(Cc2ccc(Cl)cc2Oc2ccc(-c3cnc4n3CCN(C(=O)[C@H]3CCOC3)C4)cc2)C(=O)C[C@@H](Cc2ccccc2)C(=O)N(C)[C@@H](C)CNC(=O)C[C@H](Cc2ccc(Cl)cc2)N(C)C1=O` [Compound 162, (2S,5S,8S,13S,16R)-16-benzyl-1-(4-chloro-2-(4-(7-((S)-tetrahydrofuran-3-carbonyl)-5,6,7,8-tetrahydroimidazo[1,2-a]pyrazin-3-yl)phenoxy)benzyl)-8-(4-chlorobenzyl)-5-(methoxymethyl)-2,7,13,14-tetramethyl-1,4,7,11,14-pentaazacyclooctadecane-3,6,10,15,18-pentaone] were 91.41% and 2.9 nM.
For `COC[C@@H]1NC(=O)[C@H](C)N(Cc2ccc(Cl)cc2Oc2ccc(-n3cnc(C(=O)NC(C)C)c3C)cc2)C(=O)C[C@@H](Cc2ccccc2)C(=O)N(C)[C@@H](C)CNC(=O)C[C@H](Cc2ccc(Cl)cc2)N(C)C1=O` [Compound 163, 1-(4-(2-(((2S,5S,8S,13S,16R)-16-benzyl-8-(4-chlorobenzyl)-5-(methoxymethyl)-2,7,13,14-tetramethyl-3,6,10,15,18-pentaoxo-1,4,7,11,14-pentaazacyclooctadecan-1-yl)methyl)-5-chlorophenoxy)phenyl)-N-isopropyl-5-methyl-1H-imidazole-4-carboxamide], in that order: 84.60% and 135 nM.
Take `C[C@@H]1CC(=O)N(Cc2ccc(Cl)cc2Oc2ccc(-c3cnc(CN(C)C)n3C)cc2)[C@@H](C)C(=O)N[C@@H](CO)C(=O)N(C)[C@@H](Cc2ccc(Cl)cc2)CC(=O)N[C@H]2CCCC[C@@H]2N(C)C1=O` [Compound 164, (4S,7S,10S,14R,16aS,20aS)-11-(4-chloro-2-(4-(2-((dimethylamino)methyl)-1-methyl-1H-imidazol-5-yl)phenoxy)benzyl)-4-(4-chlorobenzyl)-7-(hydroxymethyl)-5,10,14,16-tetramethylhexadecahydrobenzo[l][1,4,7,11,14]pentaazacyclooctadecine-2,6,9,12,15(3H)-pentaone]: the Max % inhibition is recorded as 80.18% and the IC50 was found to be 3.6 nM.
With `COC[C@@H]1NC(=O)[C@H](C)N(Cc2ccc(Cl)cc2Oc2ccc(-c3cnc(CN4CCCC4)n3C)cc2)C(=O)C[C@@H](Cc2ccc(F)c(F)c2)C(=O)N(C)[C@@H](C)CNC(=O)C[C@H](Cc2ccc(Cl)cc2)N(C)C1=O` [Compound 165, (2S,5S,8S,13S,16R)-1-(4-chloro-2-(4-(1-methyl-2-(pyrrolidin-1-ylmethyl)-1H-imidazol-5-yl)phenoxy)benzyl)-8-(4-chlorobenzyl)-16-(3,4-difluorobenzyl)-5-(methoxymethyl)-2,7,13,14-tetramethyl-1,4,7,11,14-pentaazacyclooctadecane-3,6,10,15,18-pentaone], the Max % inhibition is 92.29% and the IC50 came to 5.6 nM.
Take `COC[C@@H]1NC(=O)[C@H](C)N(Cc2c(F)ccc(F)c2Oc2ccc(-c3cnc(CN(C)C)n3C)cc2)C(=O)C[C@@H](Cc2ccccc2)C(=O)N(C)[C@@H](C)CNC(=O)C[C@H](Cc2ccc(Cl)cc2)N(C)C1=O` [Compound 166, (2S,5S,8S,13S,16R)-16-benzyl-8-(4-chlorobenzyl)-1-(2-(4-(2-((dimethylamino)methyl)-1-methyl-1H-imidazol-5-yl)phenoxy)-3,6-difluorobenzyl)-5-(methoxymethyl)-2,7,13,14-tetramethyl-1,4,7,11,14-pentaazacyclooctadecane-3,6,10,15,18-pentaone]: the Max % inhibition is 96.70% and the IC50 was 4.3 nM.
Turning to `COC[C@@H]1NC(=O)[C@H](C)N(Cc2ccc(Cl)cc2Oc2ccc(-c3cnc(C(C)O)n3C)cc2)C(=O)C[C@@H](Cc2ccccc2)C(=O)N(C)[C@@H](C)CNC(=O)C[C@H](Cc2ccc(Cl)cc2)N(C)C1=O` (stereo partly drawn) [Compound 167, (2S,5S,8S,13S,16R)-16-benzyl-1-(4-chloro-2-(4-(2-(1-hydroxyethyl)-1-methyl-1H-imidazol-5-yl)phenoxy)benzyl)-8-(4-chlorobenzyl)-5-(methoxymethyl)-2,7,13,14-tetramethyl-1,4,7,11,14-pentaazacyclooctadecane-3,6,10,15,18-pentaone], the Max % inhibition is recorded as 81.26% and the IC50 came to 1.8 nM.
Take `COC[C@@H]1NC(=O)[C@H](C)N(Cc2c[nH]c(=O)cc2Oc2ccc(-c3cnc(CN(C)C)n3C)cc2)C(=O)C[C@@H](Cc2ccccc2)C(=O)N(C)[C@@H](C)CNC(=O)C[C@H](Cc2ccc(Cl)cc2)N(C)C1=O` [Compound 168, (2S,5S,8S,13S,16R)-16-benzyl-8-(4-chlorobenzyl)-1-((4-(4-(2-((dimethylamino)methyl)-1-methyl-1H-imidazol-5-yl)phenoxy)-6-oxo-1,6-dihydropyridin-3-yl)methyl)-5-(methoxymethyl)-2,7,13,14-tetramethyl-1,4,7,11,14-pentaazacyclooctadecane-3,6,10,15,18-pentaone]: the Max % inhibition was 85.66% and the IC50 is 67.7 nM.
As for `COC[C@@H]1NC(=O)[C@H](C)N(Cc2ccc(Cl)cc2Oc2ccc(-c3cnc(CN4CCCC4)n3C)cc2)C(=O)C[C@@H](Cc2ccccc2)C(=O)N(C)[C@@H](CCCCN)CNC(=O)C[C@H](Cc2ccc(Cl)cc2)N(C)C1=O.O=C(O)C(F)(F)F` [Compound 169, (2S,5S,8S,13S,16R)-13-(4-aminobutyl)-16-benzyl-1-(4-chloro-2-(4-(1-methyl-2-(pyrrolidin-1-ylmethyl)-1H-imidazol-5-yl)phenoxy)benzyl)-8-(4-chlorobenzyl)-5-(methoxymethyl)-2,7,14-trimethyl-1,4,7,11,14-pentaazacyclooctadecane-3,6,10,15,18-pentaone trifluoroacetate], the Max % inhibition is reported as 91.73% and the IC50 was 1.3 nM.
Consider `C[C@H]1CNC(=O)C[C@H](Cc2ccc(Cl)cc2)N(C)C(=O)[C@H](COC(F)F)NC(=O)[C@H](C)N(Cc2ccc(Cl)cc2Oc2ccc(-c3cnc(CN(C)C)n3C)cc2)C(=O)C[C@@H](Cc2ccccc2)C(=O)N1C` [Compound 170, (2S,5S,8S,13S,16R)-16-benzyl-1-(4-chloro-2-(4-(2-((dimethylamino)methyl)-1-methyl-1H-imidazol-5-yl)phenoxy)benzyl)-8-(4-chlorobenzyl)-5-((difluoromethoxy)methyl)-2,7,13,14-tetramethyl-1,4,7,11,14-pentaazacyclooctadecane-3,6,10,15,18-pentaone], for which the Max % inhibition was determined as 102.49% and the IC50 is 1.3 nM.
`COC[C@@H]1NC(=O)[C@H](C)N(Cc2ccc(Cl)cc2Oc2ccc(-c3cnc4n3CCN(C(=O)[C@@H]3CCOC3)C4)cc2)C(=O)C[C@@H](Cc2ccccc2)C(=O)N(C)[C@@H](C)CNC(=O)C[C@H](Cc2ccc(Cl)cc2)N(C)C1=O` [Compound 171, (2S,5S,8S,13S,16R)-16-benzyl-1-(4-chloro-2-(4-(7-((R)-tetrahydrofuran-3-carbonyl)-5,6,7,8-tetrahydroimidazo[1,2-a]pyrazin-3-yl)phenoxy)benzyl)-8-(4-chlorobenzyl)-5-(methoxymethyl)-2,7,13,14-tetramethyl-1,4,7,11,14-pentaazacyclooctadecane-3,6,10,15,18-pentaone]: the Max % inhibition was determined as 91.76% and the IC50 is 3.1 nM.
